{"source": "patent US20040043919A1", "about": "“Method for the treatment of neurological and neuropsychological disorders” (priority 2003, published 2004)", "key": {"rats": {"system": "rats", "conditions": "administered into the dorsal periaqueductal gray matter; cited from earlier work"}, "[1]": {"molecular_target": "T1, attractin from human plasma (Homo sapiens, UniProt O75882)", "T1 construct": "was prepared from 100 ml plasma from healthy humans; tissue Baxter GmbH Germany, Plasmazentrum Halle (supplier of the plasma); host or cells: human plasma", "T1 sequence (O75882 84-1272 isoform O75882-2 limits assumed)": "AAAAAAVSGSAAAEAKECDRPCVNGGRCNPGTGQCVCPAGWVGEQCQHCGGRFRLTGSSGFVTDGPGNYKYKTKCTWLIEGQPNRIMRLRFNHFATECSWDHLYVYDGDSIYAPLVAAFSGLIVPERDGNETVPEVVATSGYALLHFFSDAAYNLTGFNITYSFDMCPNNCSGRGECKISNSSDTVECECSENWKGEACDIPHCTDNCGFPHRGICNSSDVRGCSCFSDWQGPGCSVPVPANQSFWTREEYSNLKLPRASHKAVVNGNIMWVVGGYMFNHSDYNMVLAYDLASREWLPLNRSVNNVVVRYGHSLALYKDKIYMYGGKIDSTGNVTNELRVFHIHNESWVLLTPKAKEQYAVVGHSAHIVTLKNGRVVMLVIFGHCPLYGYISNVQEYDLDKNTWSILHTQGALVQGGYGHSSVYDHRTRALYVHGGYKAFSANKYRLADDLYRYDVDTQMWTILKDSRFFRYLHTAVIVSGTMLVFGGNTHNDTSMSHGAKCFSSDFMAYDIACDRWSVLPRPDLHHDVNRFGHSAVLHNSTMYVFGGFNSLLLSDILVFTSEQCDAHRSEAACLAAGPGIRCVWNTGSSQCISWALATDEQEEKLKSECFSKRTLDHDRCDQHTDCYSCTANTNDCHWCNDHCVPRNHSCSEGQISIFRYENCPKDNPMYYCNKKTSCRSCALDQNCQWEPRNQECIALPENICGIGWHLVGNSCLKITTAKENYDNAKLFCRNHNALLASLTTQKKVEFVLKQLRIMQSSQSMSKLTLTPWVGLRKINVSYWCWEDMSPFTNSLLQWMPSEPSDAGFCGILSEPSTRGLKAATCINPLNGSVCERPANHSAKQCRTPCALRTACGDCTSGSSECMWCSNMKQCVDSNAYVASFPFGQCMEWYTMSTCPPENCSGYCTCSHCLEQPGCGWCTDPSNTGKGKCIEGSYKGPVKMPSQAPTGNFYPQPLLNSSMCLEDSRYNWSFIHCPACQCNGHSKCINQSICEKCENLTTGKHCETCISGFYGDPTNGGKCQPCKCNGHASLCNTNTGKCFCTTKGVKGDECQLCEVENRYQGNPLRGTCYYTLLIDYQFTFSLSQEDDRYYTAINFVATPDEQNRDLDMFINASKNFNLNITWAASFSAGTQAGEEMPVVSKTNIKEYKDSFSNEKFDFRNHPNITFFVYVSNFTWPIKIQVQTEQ", "assay": "Proteolytic activity of purified attractin (chromogenic substrate kinetics)", "assay_type": "biochemical", "experimental": "(§1) Attractin from human plasma (Baxter GmbH Germany, Plasmazentrum Halle) was prepared from 100 ml plasma from healthy humans. Matrix-assisted laser desorption/ionisation mass spectrometry was carried out using the Hewlett-Packard G2025 LD-TOF System.\n(§2) In further studies the proteolytic activity of attractin has been investigated. […] In addition, the cleavage of bioactive peptides such as NP Y, RANTES, GIP, and Glucagon by purified attractin has been analyzed. […] Previously, differences within hydrolysis of the chemokine RANTES by DP IV and attractin have been described^4."}, "[2]": {"molecular_target": "T1, attractin from human plasma", "assay": "MALDI-TOF analysis of peptide cleavage by purified attractin in presence or absence of isoleucyl-thiazolidine", "assay_type": "biochemical", "conditions": "peptide 25 μM, 37° C.; for Cleavage of bioactive peptide by purified attractin: tricine/HCl pH 7.6, MALDI-TOF (FIG. 1)", "experimental": "as §1\nTo obtain spectra of peptides (25 μM) by the treatment of purified DP IV and attractin in the presence or absence of isoleucyl-thiazolidine (10 μM), substrates were incubated at 37° C. with 40 mM tricine/HCl buffer pH 7.6 and enzyme solution in a 2:2:1 ratio. Samples of the reaction mixtures were removed at various time intervals and mixed with equal volumes of the matrix solution. By mixing assay sample and matrix, the low pH of the matrix solution stopped the enzymatic reaction. A small volume of this mixture was transferred to a probe tip and immediately evaporated in a Hewlett-Packard G2024A Sample Prep Accessory.\nas §2"}, "[3]": {"system": "olfactory bulbectomized rats", "conditions": "7-day i.c.v. administration; cited from earlier work"}, "[4]": {"assay": "Anxiolytic effect on administration of the attractin inhibitor", "assay_type": "in vivo", "conditions": "no method or data given"}}}
{"molecule": "NC(N)=NCCC[C@@H](NC(=O)C(c1ccccc1)c1ccccc1)C(=O)NCc1ccc(O)cc1", "note": "[BIBP3226]", "values": [{"measurement": "Time spent in active social interaction", "setting": "rats", "result": "decreased the time spent in active social interaction"}]}
{"molecule": "NCC(=O)N1CCCC1C(=O)Nc1ccc([N+](=O)[O-])cc1", "note": "(stereo not drawn) [Gly-Pro-pNA]", "values": [{"measurement": "Km", "setting": "[1]", "result": 140, "unit": "µM"}]}
{"molecule": "Neuropeptide Y [NP Y]", "values": [{"measurement": "Cleavage of bioactive peptide by purified attractin", "setting": "[2]", "result": "capable of releasing the N-terminal dipeptide Tyr-Pro"}, {"measurement": "Behavioral and neurotransmitter deficits", "setting": "[3]", "result": "attenuated behavioral and neurotransmitters deficits"}]}
{"molecule": "RANTES1-15: synthetic N-terminal fragment 1-15 of the chemokine RANTES (SPYSSDTTPCCFAYI; UniProt P13501 24-38, looked up, fragment)", "values": [{"measurement": "Cleavage of bioactive peptide by purified attractin", "setting": "[2]", "result": "capable of releasing sequentially the first (Ser-Pro) as well as the second dipeptide (Tyr-Ser)"}]}
{"molecule": "isoleucyl-thiazolidine hemifumarate", "values": [{"measurement": "Cleavage of NP Y by attractin in presence of inhibitor", "setting": "[2]; isoleucyl-thiazolidine 10 μM, pH 7.6, MALDI-TOF (FIG. 1B)", "result": "the cleavage was suppressed"}, {"measurement": "Anxiolytic effect", "setting": "[4]", "result": "exhibits an anxiolytic effect"}]}
